# Assay results: US11714087B2, “Treatment of necroptosis” (priority 2018, dated 2023)
# How the values were obtained:
# Assay type in all cases: in vivo, Sprague-Dawley rats
# RIPK1 = target: T1, RIPK1 (Rattus norvegicus, UniProt D3ZYL0); assay: Rodent ACLF model (BDL+LPS rats): RIPK1 immunostaining of liver tissue; conditions: 3.3 mg/kg Nec-1 i.p. 3 hr before LPS, vs BDL+Vehicle+LPS, p=0.009
# T1 construct: Representative images of liver tissue of sham, BDL, BDL+LPS and BDL+NEC-1+LPS stained for RIPK1; from tissue; host or cells: rat liver (BDL+LPS ACLF model)
# T1 sequence (D3ZYL0 1-658): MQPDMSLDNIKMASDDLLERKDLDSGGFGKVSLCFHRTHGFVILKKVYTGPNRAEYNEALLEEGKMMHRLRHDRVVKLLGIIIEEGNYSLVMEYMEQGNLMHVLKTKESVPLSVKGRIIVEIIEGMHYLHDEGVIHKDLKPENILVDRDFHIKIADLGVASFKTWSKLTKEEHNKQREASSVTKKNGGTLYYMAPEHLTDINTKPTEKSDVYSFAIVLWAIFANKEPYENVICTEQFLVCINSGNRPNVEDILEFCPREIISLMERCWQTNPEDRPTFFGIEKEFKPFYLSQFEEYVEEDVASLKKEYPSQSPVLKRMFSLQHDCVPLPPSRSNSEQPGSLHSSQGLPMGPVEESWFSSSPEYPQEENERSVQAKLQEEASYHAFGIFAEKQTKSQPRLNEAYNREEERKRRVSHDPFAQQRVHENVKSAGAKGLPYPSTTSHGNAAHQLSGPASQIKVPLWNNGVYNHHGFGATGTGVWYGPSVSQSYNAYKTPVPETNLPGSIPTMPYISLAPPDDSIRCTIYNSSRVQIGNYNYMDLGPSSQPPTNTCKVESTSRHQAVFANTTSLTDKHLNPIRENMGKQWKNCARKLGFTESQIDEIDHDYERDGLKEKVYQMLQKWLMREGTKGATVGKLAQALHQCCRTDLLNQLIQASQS
# Experimental: (§1) The animal model of ACLF utilised in this study was developed using a well-characterized rodent model of advanced fibrosis induced by bile duct ligation (BDL) with ACLF induced in this model by infusion of LPS. Bile duct ligation, housing, and care of the animals were performed as previously described. Four groups of adult male Sprague-Dawley rats were studied (n=4-8 in each group). The animals were studied 4 weeks after either sham-operation or BDL. The animals in each group were terminated 3-h after administration of LPS (Klebsiella pneumoniae) (0.3 mg/kg/hr, intravenously) or saline under terminal anaesthesia.
# (§2) Necrostatin 1 (Nec-1, Calbiochem, Sigma Aldrich, UK) was prepared as follows. Nec-1 was redissolved in N-2 methyl-pyrrolidone (NMP) to make a 200 mg/ml stock solution which was then further diluted to an intermediate concentration of 40 mg/ml in NMP. […]
# (§3) Terminal deoxynucleotidyl transferase biotin-dUTP nick end labeling (TUNEL) staining of deparaffinised and proteinase K-treated liver and kidney sections was performed using the In-Situ Cell Death Detection kit, POD (Roche, UK) as per manufacturer's protocol. […] Quantitative analysis of immunohistochemistry positive area was assessed by measuring optical density using FIJI Image J software.
# [1] = tested on: liver and kidney sections; assay: Rodent ACLF model (BDL+LPS rats): TUNEL staining of liver and kidney sections (cell death)
# Experimental: as §1, §2, §3
# RIPK3 = assay: Rodent ACLF model (BDL+LPS rats): plasma RIPK3 by ELISA; conditions: BDL+NEC-1+LPS vs BDL+Vehicle+LPS
# Experimental: as §1, §2
# Blood was withdrawn from the carotid line and immediately placed in heparin or EDTA-containing tubes (until full exsanguination), centrifuged (3,500 rpm for 10 min at 4° C.) and the plasma was stored at −80° C. for later use in biochemistry and RIPK3 quantification [Rat RIPK3 (Receptor-interacting serine/threonineprotein kinase) ELISA kit, Cat. No. ER0446, Wuhan Fine Biological Technology Co., Ltd., China]. […]
# [2] = Rodent ACLF model (BDL+LPS rats): plasma biochemistry, histone 3 and brain water
# Experimental: as §1
# Necrostatin 1 (Nec-1, Calbiochem, Sigma Aldrich, UK) was prepared as follows. Nec-1 was redissolved in N-2 methyl-pyrrolidone (NMP) to make a 200 mg/ml stock solution which was then further diluted to an intermediate concentration of 40 mg/ml in NMP. The 40 mg/ml solution was finally diluted to a working concentration of 1 mg/ml in a solution of 30% (2-hydroxypropyl) β-cyclodextrin (Sigma, Cat No H107)/0.5% Citric acid.
# (§4) 4. BDL animals administered LPS and Nec-1; This group of BDL rats received an i.p. injection of 3.3 mg/kg Nec-1 followed, by an i.p injection of LPS, 3 hr later.
# Animals were sacrificed 3 hours after LPS.
# Blood was withdrawn from the carotid line and immediately placed in heparin or EDTA-containing tubes (until full exsanguination), centrifuged (3,500 rpm for 10 min at 4° C.) and the plasma was stored at −80° C. for later use in biochemistry and RIPK3 quantification [Rat RIPK3 (Receptor-interacting serine/threonineprotein kinase) ELISA kit, Cat. No. ER0446, Wuhan Fine Biological Technology Co., Ltd., China]. Organs were harvested and either fixed in formalin for histological assessment or snap frozen.
# Caspase 3/7 = assay: Liver Caspase 3/7 activity (Caspase-Glo) in rodent ACLF model; conditions: BDL+NEC-1+LPS group; IQR 1640-3890; p=0.626 compared to BDL
# Experimental: as §1, §4
# (§5) Liver Caspase 3/7 and 8 activities were measured using Caspase-Glo assay kits (Promega). Briefly, cytosolic extracts from liver tissue were obtained by homogenisation in hypotonic extraction buffer [10 mM HEPES, 0.5% Triton X-100, 2 mM DTT, protease inhibitor cocktail (Sigma)] using a TissueLyser LT sytem (Qiagen, UK). […] After quantification using BCA™ Protein Assay Kit (Pierce, UK), protein concentrations of supernatant were adjusted to 1 mg/ml with extraction buffer and stored at −80° C. […] Luminescence was measured using a plate-reading luminometer (FLUOstar Omega, BMG Labtech, UK).
# Caspase 8 = assay: Liver Caspase 8 activity (Caspase-Glo) in rodent ACLF model; conditions: BDL+NEC-1+LPS group; IQR 313.5-414.3; p=0.020 compared to BDL
# Experimental: as §1, §4, §5
smiles,measurement,setting,value
"CN1C(=O)C(Cc2c[nH]c3ccccc23)NC1=S (stereo not drawn) [NEC-1, Necrostatin 1]",expression of RIPK1 in liver (immunostaining optical density),RIPK1,significantly decreased
same,total cell death in the livers (TUNEL staining),"[1]; BDL+NEC-1+LPS vs BDL+Vehicle+LPS, p=0.001",significant reduction in total cell death
same,cell death in kidneys (TUNEL staining),"[1]; BDL+NEC-1+LPS vs BDL+vehicle+LPS, p=0.002",significant reduction in cell death
same,plasma RIPK3 levels,RIPK3,reduced markedly
same,plasma urea levels,"[2]; BDL+NEC-1+LPS vs BDL+Vehicle+LPS, p=0.012",significant reduction
same,plasma albumin levels,"[2]; BDL+NEC-1+LPS vs BDL+Vehicle+LPS, p=0.017",significantly higher
same,plasma creatinine,"[2]; BDL+NEC-1+LPS vs BDL+Vehicle+LPS, p=0.020",significant reduction
same,plasma AST,"[2]; BDL+NEC-1+LPS vs BDL+Vehicle+LPS, p=0.037",significantly lower
same,brain water content,"[2]; BDL+NEC-1+LPS vs BDL+Vehicle+LPS, p=0.100","reduction in brain water content, although not statistically significant"
same,circulating levels of histone 3,"[2]; NEC-1 treated group vs BDL+Vehicle+LPS, p=0.048",significant reduction in circulating levels of histone 3
same,"Caspase 3/7 activity in liver homogenates, median",Caspase 3/7,2857 RLU
same,"Caspase 8 activity in liver homogenates, median",Caspase 8,326.5 RLU
